Source: US20210244712A1, “METHODS FOR TREATING PATIENTS WITH CANCER HAVING DEFECTS IN CYCLIN D REGULATION” (NysnoBio Ireland DAC, priority 2018, published 2021)
Entries after “also recorded” stand apart in the source; their conditions may differ. Like-named read-outs stand apart in the source and are kept apart here.

Legend:
A2780 = assay: Cell proliferation assay; assay type: cell-based; settings: Homo sapiens; for IC50: Ovarian A2780
Method: (§1) Measurement of the inhibitive effect of compounds on cancer cell proliferation was performed. The assays were performed under the following conditions: Cells are harvested at a concentration of 4×10^4 cells/ml in media. Volumes of 100 μL/well of these cell suspensions were added to a 96 well plate using a multichannel pipette. Plates were gently agitated to ensure an even dispersion of cells over a given plate. Cells were then incubated at 37° C., 5% CO2 overnight. Following this, 100 μL of compound at varying concentrations was added to wells in triplicate. Control wells are those with 100 μL media containing 0.33% DMSO added to cell suspension (this is the equivalent volume of DMSO found in the highest concentration of drug). Plates were then gently agitated, as above, and incubated at 37° C., 5% CO2 for 72 hrs (control wells have reached 80-90% confluency). Assessment of cell proliferation in the presence of Compounds C and F was determined by the acid phosphatase assay.
(§2) Following the incubation period of 72 hrs, media was removed from the plates. Each well on the plate was washed twice with 100 μL PBS. This was then removed and 100 μL of freshly prepared phosphatase substrate (10 mM p-nitrophenol phosphate in 0.1M sodium acetate, 0.1% triton X-100, pH 5.5) was added to each well. The plates were then incubated in the dark at 37° C. for 2 hours. Color development was monitored during this time. The enzymatic reaction was stopped by the addition of 50 μL of 1N NaOH. The plate was read in a dual beam plate reader at 405 nm with a reference wavelength of 620 nm. The absorbance reading of the latter is subtracted from the former, and the effect of the drug on cell proliferation was then measured as a percentage against the control cells (DMSO), which is taken as 0% inhibition.

A549 = assay: Cell proliferation assay; assay type: cell-based; settings: Homo sapiens
Method: as §1, §2

HCT 116 = assay: Cell proliferation assay; assay type: cell-based; settings: Homo sapiens
Method: as §1, §2

Jeko-1 = assay: Cell proliferation assay; assay type: cell-based; settings: Homo sapiens; for IC50: Mantle Cell Jeko-1, overexpression of Cyclin D
Method: as §1, §2

OAW42 = assay: Cell proliferation assay; assay type: cell-based; settings: Homo sapiens, OAW-42; for IC50: Ovarian OAW42
Method: as §1, §2

TOV-112D = assay: Cell proliferation assay; assay type: cell-based; settings: Homo sapiens
Method: as §1, §2

TOV-21G = assay: Cell proliferation assay; assay type: cell-based; settings: Homo sapiens
Method: as §1, §2

HCT-116 xenograft = assay: Subcutaneous HCT-116 xenograft model, tumor volume; assay type: in vivo, nude mice; settings: vs control
Method: The efficacy of Compound 42, Compound F, and Compound Q3 were evaluated in the treatment of subcutaneous HCT-116 xenograft model in nude mice.
Cell Culture: HCT-116 tumor cell lines were maintained in vitro as a monolayer culture in DMEM medium supplemented with 10% fetal bovine serum at 37° C. in an atmosphere of 5% CO2 in air. The tumor cells were routinely subcultured twice weekly by trypsin-EDTA treatment (0.05% Trypsin-EDTA) and 1:4 split: The cells in an exponential growth phase were harvested and counted for tumor inoculation.
Tumor Inoculation: Each, mouse was inoculated subcutaneously at the flank region with HCT-1.16 cells (1.0×106) in 0.1 ml of 1×PBS mixed with Matrigel (1:1) for tumor development. The day Xenotransplantation was performed is denoted as day 0.
Thirty (30) animals with approx 100-150 mm^3 tumors were selected for HCT-116 follow up experiment and randomly placed Into Groups 1, 2, […], 4, 5, and 6 as shown in Table 8.
Group Assignment: Before grouping and treatment, all animals were weighed and fee tumor volumes were confirmed (100-150 mm^3) using electronic caliper. Since the tumor volume can affect fee effectiveness of any given treatment mice into groups using randomized block design as following: First the experimental animals were divided into homogeneous blocks based on their tumor volume. Secondly, within each block, randomization of experimental animals to different groups By using randomized block design to assign experimental animals, we ensure that each animal has the same probability of being assigned to any given treatment groups and therefore systematic error is minimized.
(§3) Treatments were initiated when turner volume reached 100-150 mm^3. Treatments started on Day 5. Test compounds were administered intraperitoneally (II′) in 10 mg/mL solution comprising 10% N,N-dimethyl acetamide, 15% macrogol 15 hydroxy stearate, polyethylene glycol-15-hydroxystearate, and 75% aqueous hydroxypropyl-beta-cyclodextrin.
(§4) Observation and data collection: After tumor cells inoculation, the animals were checked daily for morbidity and mortality. At the time of routine monitoring, the animals were checked for any adverse effects of tumor growth and treatments on normal behavior such as mobility, visual estimation of food and water consumption, body weight gain/loss, eye/hair matting and any other abnormal effects, Death and observed clinical signs were recorded, per […] IACUC. Tumor volumes were measured every 3-4 days in two dimensions using an electronic caliper, sad the volume data are expressed in, mm3 using the formula: V=0.5 a×b^2 where a and b are fee long and short diameters of the tumor, respectively. Dosing and tumor volume measurement procedures were conducted in a Laminar Flow Cabinet according to Altogen Labs IACUC regulations.
Statistics: Summary statistics, the mean and the standard error of the mean (SEM), are provided for the tumor volume of each group at each time point. Statistical analysis of difference in tumor volume among the groups and the analysis of drug interaction were conducted on the data obtained after the final dose.

[1] = HCT-116 xenograft model, body weight and adverse events; assay type: in vivo; settings: for weight loss or adverse events: Groups 2-6 of Table 8, IP daily for 20 days; for body weight: throughout the duration of the study, Compound 42 1 and 5 mg/kg, Compound F 10 or 25 mg/kg
Method: as §3, §4
Body weight loss daring fee study: Sacrifice fee mouse when one measurement of body weight loss (BWL)>20% (only for control animals). Animal research associated wife this study was conducted under Altogen Labs IACUC regulatory space. Altogen Labs IACUC guidelines were followed in case of BWL and any other conditions.

[2] = CRC HCT-116, loss of p16 (mutant p53), read-out: Proliferation IC50
[3] = Ovarian TOV112D, loss of p16 (mutant p53), read-out: Proliferation IC50
[4] = Ovarian TOV21G, read-out: Proliferation IC50
[5] = Groups 2-6 of Table 8 (Compound 42 1 and 5, Q3 5 and 15, F 25 mg/kg), IP daily for 20 days, 28 days

| Compound | IC50 (A2780) [nM] | IC50 (HCT 116; [2]) [nM] | IC50 (Jeko-1) [nM] | IC50 (OAW42) [nM] | IC50 (TOV-112D; [3]) [nM] | IC50 (TOV-21G; [4]) [nM] | tumor growth (tumor volume) (HCT-116 xenograft; [5]) | weight loss or adverse events [1] | body weight [1] | other results |
| --- | --- | --- | --- | --- | --- | --- | --- | --- | --- | --- |
| Cc1ccccc1C(=O)Nc1nc(NC(=O)c2ccccc2C)n(-c2ccccc2)n1 [Compound F, 2-methyl-N-[5-[(2-methylbenzoyl)amino]-1-phenyl-1,2,4-triazol-3-yl]benzamide] | 1300 | 1300 | > 2500 | > 2500 | 850 | 1500 | reduce the tumor growth | No weight loss or any adverse events | maintained body weight | IC50 (A549; A549, 72 hrs, read-out: Cell Viability: IC50): 7540 nM; IC50 (HCT 116; HCT 116, 72 hrs, read-out: Cell Viability: IC50): 2000 nM; IC50 (TOV-112D; TOV112D, TOV-112D, 72 hrs, read-out: Cell Viability: IC50): 990 nM; IC50 (TOV-21G; TOV21G, TOV-21G, 72 hrs, read-out: Cell Viability: IC50): 1160 nM; tumor growth (tumor volume) (HCT-116 xenograft; 10 mg/kg, over 28 days): substantially reduce tumor growth; tumor growth (tumor volume) (HCT-116 xenograft; 25 mg/kg, IP, over 28 days): most substantially reduced; also recorded: substantially reduce tumor growth |
| Cc1ccccc1C(=O)Nc1nc(NC(=O)c2ccccc2C)n(-c2ccc(OC(F)(F)F)cc2)n1 [Compound 42, N,N′-(1-(4-(trifluoromethoxy)phenyl)-1H-1,2,4-triazole-3,5-diyl)bis(2-methylbenzamide)] | 84 | 87 | 154 | 166 | 103 | 109 | reduce the tumor growth | No weight loss or any adverse events | maintained body weight | EC50 (A2780; Table 7a, Ovarian (A2780)): 58 nM; EC50 (A549; Table 7a, Lung (A549)): 72 nM; EC50 (HCT 116; Table 7a, Colon (HCT-116), read-out: EC50): 87 nM; EC50 (Jeko-1; Table 7a, Mantle Cell (Jeko-1)): 154 nM; EC50 (OAW42; Table 7a, Ovarian (OAW42)): 166 nM; EC50 (TOV-112D; Table 7a, Ovarian (TOV112D), read-out: EC50): 98 nM; EC50 (TOV-21G; Table 7a, Ovarian (TOV21G)): 74 nM; tumor growth (tumor volume) (HCT-116 xenograft; 1 mg/kg, IP, over 28 days): reduce tumor growth; tumor growth (tumor volume) (HCT-116 xenograft; 5 mg/kg, IP, over 28 days): reduce tumor growth |
